Test results taken from ChEMBL document CHEMBL1201862, “PubChem BioAssay data set” (2004).
Blank lines part the entries; values can stand above or below the molecule they belong to. Activity calls are given as the source filed them.

Experiments:
[1] = molecular target: T1, Microphthalmia-associated transcription factor (Homo sapiens, UniProt O75030); experiment: TRPM1 promoter luciferase signal decrease, dose response, MITF inhibitor project, cell-based, SK-MEL-5, cherry-picked, set 3 (AID 493073); assay type: functional
T1 sequence (O75030 whole entry): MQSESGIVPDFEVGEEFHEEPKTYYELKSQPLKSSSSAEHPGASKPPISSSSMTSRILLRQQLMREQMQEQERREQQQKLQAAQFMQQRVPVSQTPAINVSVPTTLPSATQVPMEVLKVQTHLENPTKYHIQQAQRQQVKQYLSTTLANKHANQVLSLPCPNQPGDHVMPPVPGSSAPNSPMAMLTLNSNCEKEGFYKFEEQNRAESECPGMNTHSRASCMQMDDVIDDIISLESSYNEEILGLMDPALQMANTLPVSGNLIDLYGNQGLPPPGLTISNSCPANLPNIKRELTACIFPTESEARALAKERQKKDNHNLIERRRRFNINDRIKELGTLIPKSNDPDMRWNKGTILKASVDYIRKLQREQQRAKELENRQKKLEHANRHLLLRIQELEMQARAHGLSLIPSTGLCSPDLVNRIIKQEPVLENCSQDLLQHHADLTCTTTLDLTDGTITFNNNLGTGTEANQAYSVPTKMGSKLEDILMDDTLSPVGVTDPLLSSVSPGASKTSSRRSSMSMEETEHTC

[2] = HeLa cell cytotoxicity, dose response, cytotoxicity control, CellTiter-Glo luminescence, dry powder, set 2 (AID 720593); assay type: functional, cell-based
[3] = growth suppression of beta-catenin-knockout colon cells, dose response, cell-based, HCT116, human colon tumor (AID 1045); assay type: functional;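 note: HCT116 colon tumor cells with beta catenin knocked out; cells exposed to compound for 60 hours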
Streptococcus = experiment: Group A Streptococcus viability loss, dose response, counter-screen for streptokinase expression inhibitor project, luminescence, BacTiterGlo (AID 1915); assay type: functional, organism-based;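 note: potency for reduction of bacterial viability or growth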
Activated CDC42 kinase 1 = Activated CDC42 kinase 1 (Homo sapiens, UniProt Q07912); experiment: Navigating the Kinome. Panel member name: ACK1; assay type: functional
[4] = molecular target: Calcium/calmodulin-dependent protein kinase type II subunit alpha (Homo sapiens, UniProt Q9UQM7); experiment: Navigating the Kinome. Panel member name: CAMK2A; assay type: functional
[5] = molecular target: 5'-AMP-activated protein kinase catalytic subunit alpha-1 (Homo sapiens, UniProt Q13131); assay type: functional
[6] = molecular target: Mitogen-activated protein kinase kinase kinase kinase 4 (Homo sapiens, UniProt O95819); assay type: functional
[7] = molecular target: T2, Receptor-type tyrosine-protein kinase FLT3 (Homo sapiens, UniProt P36888); assay type: functional;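 note: FLT3 was tested as one member of a kinome-wide kinase panel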
T2 sequence (P36888 whole entry): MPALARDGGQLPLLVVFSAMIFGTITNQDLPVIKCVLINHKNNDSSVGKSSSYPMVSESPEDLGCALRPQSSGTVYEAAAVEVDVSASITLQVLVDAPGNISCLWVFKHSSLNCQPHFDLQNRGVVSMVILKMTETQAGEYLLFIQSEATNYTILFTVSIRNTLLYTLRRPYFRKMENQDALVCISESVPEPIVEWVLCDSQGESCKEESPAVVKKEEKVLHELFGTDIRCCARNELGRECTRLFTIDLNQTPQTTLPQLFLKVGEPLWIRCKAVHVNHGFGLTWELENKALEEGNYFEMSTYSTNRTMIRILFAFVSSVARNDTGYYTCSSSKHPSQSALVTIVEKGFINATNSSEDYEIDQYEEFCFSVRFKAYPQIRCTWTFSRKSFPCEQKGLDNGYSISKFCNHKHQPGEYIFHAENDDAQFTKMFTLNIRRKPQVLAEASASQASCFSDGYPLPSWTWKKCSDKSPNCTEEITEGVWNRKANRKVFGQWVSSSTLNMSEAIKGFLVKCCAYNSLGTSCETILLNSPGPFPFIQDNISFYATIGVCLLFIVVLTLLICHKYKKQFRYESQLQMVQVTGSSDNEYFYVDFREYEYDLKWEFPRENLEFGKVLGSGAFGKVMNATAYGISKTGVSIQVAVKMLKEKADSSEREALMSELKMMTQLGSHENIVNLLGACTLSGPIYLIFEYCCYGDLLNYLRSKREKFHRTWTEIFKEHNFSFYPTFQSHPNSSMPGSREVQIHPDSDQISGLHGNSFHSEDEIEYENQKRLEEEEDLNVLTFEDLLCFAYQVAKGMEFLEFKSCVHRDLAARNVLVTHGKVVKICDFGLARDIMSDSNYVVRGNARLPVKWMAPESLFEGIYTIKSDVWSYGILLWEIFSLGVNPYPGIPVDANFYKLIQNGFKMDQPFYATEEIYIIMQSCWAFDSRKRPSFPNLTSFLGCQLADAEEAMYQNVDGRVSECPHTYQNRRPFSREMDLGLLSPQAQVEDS

[8] = molecular target: Mitogen-activated protein kinase 8 (Homo sapiens, UniProt P45983); assay type: functional;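 note: value comes from one member of a kinome-wide kinase profiling panel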
[9] = molecular target: Tyrosine-protein kinase BTK (Homo sapiens, UniProt Q06187); assay type: functional
[10] = molecular target: Platelet-derived growth factor receptor alpha (Homo sapiens, UniProt P16234); experiment: Navigating the Kinome. Panel member name: PDGFRA; assay type: functional
[11] = molecular target: Glycogen synthase kinase-3 alpha (Homo sapiens, UniProt P49840); assay type: functional;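 note: GSK3A result taken from a broad kinome-wide kinase panel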
[12] = control 3'UTR Renilla luciferase suppression, dose response, counter-screen for Shn3 inhibitor project, cell-based, Clone20-Shn3RL, cherry-picked (AID 624133); assay type: functional
[13] = molecular target: T3, Tyrosyl-DNA phosphodiesterase 2 (Homo sapiens, UniProt O95551); experiment: human TDP2 enzyme inhibitors, dose response, biochemical, epi absorbance, IC50 (AID 743297)
T3 sequence (O95551 whole entry): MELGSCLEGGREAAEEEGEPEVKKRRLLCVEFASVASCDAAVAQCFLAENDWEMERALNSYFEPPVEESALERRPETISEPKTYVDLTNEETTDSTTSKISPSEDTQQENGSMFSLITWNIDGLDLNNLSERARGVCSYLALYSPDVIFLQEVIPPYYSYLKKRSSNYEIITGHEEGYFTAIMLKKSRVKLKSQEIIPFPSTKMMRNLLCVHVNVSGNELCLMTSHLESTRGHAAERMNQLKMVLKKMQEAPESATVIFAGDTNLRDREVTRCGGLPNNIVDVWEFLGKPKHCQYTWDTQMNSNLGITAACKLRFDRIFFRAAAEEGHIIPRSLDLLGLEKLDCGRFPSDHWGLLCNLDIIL

[14] = molecular target: Serine/threonine-protein phosphatase (Homo sapiens, UniProt Q9BPW0); experiment: PP5 phosphatase inhibitors, dose response, biochemical, fluorescence (AID 2395)

Chain of 5'-AMP-activated protein kinase catalytic subunit alpha-1 (Q13131 whole entry): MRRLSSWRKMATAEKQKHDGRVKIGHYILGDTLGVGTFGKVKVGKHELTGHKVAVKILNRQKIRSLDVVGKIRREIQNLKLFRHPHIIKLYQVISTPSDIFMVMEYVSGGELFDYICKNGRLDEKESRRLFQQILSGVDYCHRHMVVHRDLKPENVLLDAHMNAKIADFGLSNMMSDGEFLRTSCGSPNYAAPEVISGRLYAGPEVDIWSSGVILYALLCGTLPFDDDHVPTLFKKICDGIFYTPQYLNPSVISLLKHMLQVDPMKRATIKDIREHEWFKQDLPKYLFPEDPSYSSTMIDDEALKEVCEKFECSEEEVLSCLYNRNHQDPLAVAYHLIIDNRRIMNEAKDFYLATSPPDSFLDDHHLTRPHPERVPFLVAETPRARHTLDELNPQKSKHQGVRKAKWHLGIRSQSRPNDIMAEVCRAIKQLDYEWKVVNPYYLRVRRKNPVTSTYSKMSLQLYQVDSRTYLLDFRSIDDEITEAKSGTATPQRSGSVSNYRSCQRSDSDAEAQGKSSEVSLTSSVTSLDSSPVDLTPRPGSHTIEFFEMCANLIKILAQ
Chain of Calcium/calmodulin-dependent protein kinase type II subunit alpha (Q9UQM7 whole entry): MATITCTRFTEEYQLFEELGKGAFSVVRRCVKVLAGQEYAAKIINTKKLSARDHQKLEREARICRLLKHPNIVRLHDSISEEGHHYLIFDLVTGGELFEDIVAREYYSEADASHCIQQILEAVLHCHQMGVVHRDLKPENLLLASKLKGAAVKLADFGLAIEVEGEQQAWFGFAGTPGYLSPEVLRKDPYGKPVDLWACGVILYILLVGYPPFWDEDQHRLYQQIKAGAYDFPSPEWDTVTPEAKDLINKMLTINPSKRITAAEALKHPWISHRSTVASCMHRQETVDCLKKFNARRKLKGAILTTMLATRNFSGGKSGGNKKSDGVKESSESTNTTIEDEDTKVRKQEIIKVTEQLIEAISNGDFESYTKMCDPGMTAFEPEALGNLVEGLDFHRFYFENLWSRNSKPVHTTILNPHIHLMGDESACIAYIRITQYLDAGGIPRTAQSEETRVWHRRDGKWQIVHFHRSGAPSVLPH
Chain of Activated CDC42 kinase 1 (Q07912 whole entry): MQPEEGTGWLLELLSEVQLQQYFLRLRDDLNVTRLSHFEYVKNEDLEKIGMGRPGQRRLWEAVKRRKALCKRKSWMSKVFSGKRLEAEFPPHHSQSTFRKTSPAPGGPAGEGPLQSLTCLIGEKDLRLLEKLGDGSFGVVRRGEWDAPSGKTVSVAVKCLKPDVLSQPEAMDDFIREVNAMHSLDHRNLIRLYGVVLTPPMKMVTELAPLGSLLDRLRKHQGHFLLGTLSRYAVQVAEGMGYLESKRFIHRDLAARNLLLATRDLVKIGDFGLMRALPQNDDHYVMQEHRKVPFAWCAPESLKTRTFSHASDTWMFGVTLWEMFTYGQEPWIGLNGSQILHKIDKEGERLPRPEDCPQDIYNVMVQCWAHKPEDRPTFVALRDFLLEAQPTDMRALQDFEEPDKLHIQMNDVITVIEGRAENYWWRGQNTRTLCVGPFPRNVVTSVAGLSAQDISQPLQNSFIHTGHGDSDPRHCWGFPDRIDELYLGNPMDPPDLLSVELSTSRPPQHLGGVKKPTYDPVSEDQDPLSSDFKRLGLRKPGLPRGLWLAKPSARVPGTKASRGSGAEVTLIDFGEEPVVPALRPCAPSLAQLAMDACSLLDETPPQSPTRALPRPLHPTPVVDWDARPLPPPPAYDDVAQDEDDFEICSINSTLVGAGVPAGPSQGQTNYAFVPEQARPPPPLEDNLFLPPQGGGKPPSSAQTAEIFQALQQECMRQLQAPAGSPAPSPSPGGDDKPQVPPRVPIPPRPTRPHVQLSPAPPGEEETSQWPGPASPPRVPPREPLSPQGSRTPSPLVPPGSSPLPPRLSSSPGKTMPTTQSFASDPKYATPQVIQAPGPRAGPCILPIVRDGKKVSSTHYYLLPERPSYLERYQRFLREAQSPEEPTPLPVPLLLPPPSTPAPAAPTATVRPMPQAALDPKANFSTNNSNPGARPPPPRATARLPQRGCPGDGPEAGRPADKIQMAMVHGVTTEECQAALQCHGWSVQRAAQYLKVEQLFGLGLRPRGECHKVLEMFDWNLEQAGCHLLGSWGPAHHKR
Chain of Platelet-derived growth factor receptor alpha (P16234 whole entry): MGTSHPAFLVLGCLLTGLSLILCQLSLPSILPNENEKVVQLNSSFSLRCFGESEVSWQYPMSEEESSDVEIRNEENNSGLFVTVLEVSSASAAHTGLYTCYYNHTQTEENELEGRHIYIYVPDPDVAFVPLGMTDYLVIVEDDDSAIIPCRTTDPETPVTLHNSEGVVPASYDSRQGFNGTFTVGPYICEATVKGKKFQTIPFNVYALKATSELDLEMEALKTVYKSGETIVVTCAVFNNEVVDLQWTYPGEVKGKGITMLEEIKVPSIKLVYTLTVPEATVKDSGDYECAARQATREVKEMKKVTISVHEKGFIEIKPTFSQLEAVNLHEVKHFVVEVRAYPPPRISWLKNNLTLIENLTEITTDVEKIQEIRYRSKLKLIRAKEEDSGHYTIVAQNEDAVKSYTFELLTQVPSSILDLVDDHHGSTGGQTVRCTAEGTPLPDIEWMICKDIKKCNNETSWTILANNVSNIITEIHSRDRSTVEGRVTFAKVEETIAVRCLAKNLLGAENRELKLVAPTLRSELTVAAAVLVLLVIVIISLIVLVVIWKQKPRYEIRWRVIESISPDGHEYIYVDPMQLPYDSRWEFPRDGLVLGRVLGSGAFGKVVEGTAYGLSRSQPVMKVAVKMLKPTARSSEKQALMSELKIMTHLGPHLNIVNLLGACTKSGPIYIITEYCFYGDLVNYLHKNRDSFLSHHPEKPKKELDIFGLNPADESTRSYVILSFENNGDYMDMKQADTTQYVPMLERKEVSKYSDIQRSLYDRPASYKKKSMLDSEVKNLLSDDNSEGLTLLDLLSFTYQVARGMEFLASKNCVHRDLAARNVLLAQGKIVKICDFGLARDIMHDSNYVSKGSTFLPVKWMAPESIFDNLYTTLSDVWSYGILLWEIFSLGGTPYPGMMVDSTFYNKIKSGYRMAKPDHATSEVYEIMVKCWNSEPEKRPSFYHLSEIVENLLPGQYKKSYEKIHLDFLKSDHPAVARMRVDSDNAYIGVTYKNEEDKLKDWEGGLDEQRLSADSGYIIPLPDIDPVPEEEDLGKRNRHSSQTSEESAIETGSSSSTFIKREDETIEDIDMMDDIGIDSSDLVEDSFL
Chain of Glycogen synthase kinase-3 alpha (P49840 whole entry): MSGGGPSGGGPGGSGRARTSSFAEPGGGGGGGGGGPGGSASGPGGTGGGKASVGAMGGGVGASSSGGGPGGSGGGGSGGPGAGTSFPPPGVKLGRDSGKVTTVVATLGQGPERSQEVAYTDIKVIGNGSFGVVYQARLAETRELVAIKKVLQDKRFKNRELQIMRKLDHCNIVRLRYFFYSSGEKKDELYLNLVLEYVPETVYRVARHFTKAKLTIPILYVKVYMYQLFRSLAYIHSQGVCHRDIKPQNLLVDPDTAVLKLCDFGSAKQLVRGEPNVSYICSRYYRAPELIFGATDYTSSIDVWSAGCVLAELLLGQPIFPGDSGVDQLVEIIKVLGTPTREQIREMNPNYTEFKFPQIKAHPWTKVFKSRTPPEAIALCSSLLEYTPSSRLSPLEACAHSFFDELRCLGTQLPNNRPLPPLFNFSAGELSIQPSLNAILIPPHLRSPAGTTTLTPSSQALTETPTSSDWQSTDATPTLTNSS
Chain of Mitogen-activated protein kinase 8 (P45983 whole entry): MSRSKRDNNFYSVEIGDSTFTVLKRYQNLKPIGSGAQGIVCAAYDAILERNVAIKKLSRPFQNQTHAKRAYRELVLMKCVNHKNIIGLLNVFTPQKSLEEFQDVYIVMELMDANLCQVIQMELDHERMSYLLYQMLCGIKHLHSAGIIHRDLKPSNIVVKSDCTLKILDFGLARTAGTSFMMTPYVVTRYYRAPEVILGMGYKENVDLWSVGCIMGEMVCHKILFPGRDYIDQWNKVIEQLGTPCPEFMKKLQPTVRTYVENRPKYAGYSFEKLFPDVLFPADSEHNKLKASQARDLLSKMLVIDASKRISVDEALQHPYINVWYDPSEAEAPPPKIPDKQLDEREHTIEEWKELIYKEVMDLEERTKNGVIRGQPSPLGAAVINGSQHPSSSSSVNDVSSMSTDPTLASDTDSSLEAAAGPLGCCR
Chain of Tyrosine-protein kinase BTK (Q06187 whole entry): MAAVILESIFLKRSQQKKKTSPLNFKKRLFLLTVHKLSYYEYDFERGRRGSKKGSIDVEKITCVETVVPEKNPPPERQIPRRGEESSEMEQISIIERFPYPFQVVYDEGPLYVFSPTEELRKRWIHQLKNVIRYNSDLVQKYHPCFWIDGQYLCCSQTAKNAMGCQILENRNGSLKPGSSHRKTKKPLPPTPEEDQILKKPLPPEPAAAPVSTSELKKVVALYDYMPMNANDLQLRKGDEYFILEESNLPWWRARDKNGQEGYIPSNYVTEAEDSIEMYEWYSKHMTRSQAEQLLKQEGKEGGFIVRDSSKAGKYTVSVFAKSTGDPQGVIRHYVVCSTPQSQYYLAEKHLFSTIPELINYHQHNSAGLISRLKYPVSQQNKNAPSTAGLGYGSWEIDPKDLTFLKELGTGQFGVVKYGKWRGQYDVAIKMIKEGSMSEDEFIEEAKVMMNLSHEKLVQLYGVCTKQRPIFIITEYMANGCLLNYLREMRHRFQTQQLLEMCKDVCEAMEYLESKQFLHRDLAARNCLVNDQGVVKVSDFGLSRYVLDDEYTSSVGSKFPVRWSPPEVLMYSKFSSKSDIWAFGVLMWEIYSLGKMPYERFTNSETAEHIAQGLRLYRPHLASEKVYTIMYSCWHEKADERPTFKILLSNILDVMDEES

SMILES: CC(C)CC(=O)NC(c1cccs1)c1ccc2cccnc2c1O (stereo unspecified)
- AC50 [1]: 3.71 µM (active)
- AC50 [2]: 20.3 µM (active)

SMILES: CCOC(=O)c1ccc(NC2=CC(=O)C(=O)c3ccccc32)cc1
- AC50 [1]: 4.3 µM (active)
- EC50 [3]: 13.8 µM (active)
- EC50 (Streptococcus): 9.24 µM (active)

- Ki (Activated CDC42 kinase 1): > 3.98 µM (inactive)
- Ki [4]: > 3.98 µM (inactive)
- Ki [5]: > 3.16 µM (inactive)
- Ki [6]: > 5.01 µM (inactive)
- Ki [7]: > 3.16 µM (inactive)
- Ki [8]: > 5.01 µM (inactive)
- Ki [9]: > 6.31 µM (inactive)
- Ki [10]: > 2.51 µM (inactive)
- Ki [11]: > 3.98 µM (inactive)
SMILES: O=C(O)C1CN(Cc2ccc(OCc3ccccc3)cc2Cl)C1

SMILES: OC(CNCCC1C=Nc2ccccc21)Cn1c2ccc(Cl)cc2c2cc(Cl)ccc21 (stereo unspecified)
- EC50 [3]: 2.7 µM (active)
- AC50 [12]: 6.08 µM (active)

- Ki (Activated CDC42 kinase 1): 2 µM (active)
- pKi (Activated CDC42 kinase 1): 5.7
- Ki [4]: 0.2 µM (active)
- pKi [4]: 6.7
- Ki [5]: 0.0398 µM (active)
- pKi [5]: 7.4
- Ki [6]: 0.02 µM (active)
- pKi [6]: 7.7
- Ki [7]: 0.00631 µM (active)
- pKi [7]: 8.2
- Ki [8]: 1.26 µM (active)
- pKi [8]: 5.9
- Ki [9]: > 6.31 µM (inactive)
- Ki [10]: 1.26 µM (active)
- pKi [10]: 5.9
- Ki [11]: 0.398 µM (active)
- pKi [11]: 6.4
SMILES: NC1CCC(Nc2nc(Cl)cc(-c3c[nH]c4ncccc34)n2)CC1 (stereo unspecified)

SMILES: Cc1ccccc1-c1cc2c(nn1)-c1ccccc1C2=O
- IC50 [13]: 32 µM (inactive)

- IC50 [14]: 19.6 µM (not active)
SMILES: COc1ccc(C(=O)c2nccc3cc(OC)c(OC)cc23)cc1OC

SMILES: CCCCCCCCCCCCCCCC[N+](C)(C)C
- EC50 (Streptococcus): 7.77 µM (active)
